This assay has as its target T1, RAGE tail (Homo sapiens, UniProt Q15109).
T1 construct: The cytoplasmic domain of RAGE, C terminal RAGE or ctRAGE (RAGE tail) is critical for RAGE-dependent signal transduction
T1 sequence (Q15109 364-404 limits assumed): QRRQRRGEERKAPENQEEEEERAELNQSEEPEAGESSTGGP
The assay is described as follows: RAGE tail fluorescence titration (fluorescence quenching), Kd determination. Particulars: compound titrated into 100 nM solution of RAGE tail, NB = binding not detected. The procedure:
Binding affinities of small molecules for either CT-RAGE or FH1 are determined by performing fluorescence titrations to generate binding isotherms and standard SPR experiments. […]
Compound D-IIIa was titrated into 100 nM solution of RAGE tail. Fluorescence quenching was used to determine binding. R^2 quality factor of the fitting was 0.94 (FIG. 1).
Compound D-IIIb was titrated into 100 nM solution of RAGE tail. Fluorescence quenching was used to determine binding. R^2 quality factor of the fitting was 0.97 (FIG. 2).
Compound D-IIIc was titrated into 100 nM solution of RAGE tail. Fluorescence quenching was used to determine binding. R^2 quality factor of the fitting was 0.98 (FIG. 3).
Compound D-IIId was titrated into 100 nM solution of RAGE tail. Fluorescence quenching was used to determine binding. R^2 quality factor of the fitting was 0.99 (FIG. 4).
Compound D-IIIe was titrated into 100 nM solution of RAGE tail. Fluorescence quenching was used to determine binding. R^2 quality factor of the fitting was 0.98 (FIG. 5).
Compound D-IIIi was titrated into 100 nM solution of RAGE tail. Fluorescence quenching was used to determine binding. R^2 quality factor of the fitting was 0.90 (FIG. 6).
Compound D-IIIk was titrated into 100 nM solution of RAGE tail. Fluorescence quenching was used to determine binding. R^2 quality factor of the fitting was 0.89 (FIG. 7).
Compound D-IIIq was titrated into 100 nM solution of RAGE tail. Fluorescence quenching was used to determine binding. R^2 quality factor of the fitting was 0.82 (FIG. 8).
Compound D-IIIv was titrated into 100 nM solution of RAGE tail. Fluorescence quenching was used to determine binding. R^2 quality factor of the fitting was 0.93 (FIG. 9).
Compound D-IIIw was titrated into 100 nM solution of RAGE tail. Fluorescence quenching was used to determine binding. R^2 quality factor of the fitting was 0.94 (FIG. 10).
Compound D-IVa was titrated into 100 nM solution of RAGE tail. Fluorescence quenching was used to determine binding. R^2 quality factor of the fitting was 0.94 (FIG. 11).
Compound D-IVb was titrated into 100 nM solution of RAGE tail. Fluorescence quenching was used to determine binding. R^2 quality factor of the fitting was 0.93 (FIG. 12).
Compound D-IVc was titrated into 100 nM solution of RAGE tail. Fluorescence quenching was used to determine binding. R^2 quality factor of the fitting was 0.92 (FIG. 13).
Compound D-IVd was titrated into 100 nM solution of RAGE tail. Fluorescence quenching was used to determine binding. R^2 quality factor of the fitting was 0.94 (FIG. 14).
Compound D-IVe was titrated into 100 nM solution of RAGE tail. Fluorescence quenching was used to determine binding. R^2 quality factor of the fitting was 0.93 (FIG. 15).
Compound D-IVf was titrated into 100 nM solution of RAGE tail. Fluorescence quenching was used to determine binding. R^2 quality factor of the fitting was 0.95 (FIG. 16).
Compound D-IVg was titrated into 100 nM solution of RAGE tail. Fluorescence quenching was used to determine binding. R^2 quality factor of the fitting was 0.89 (FIG. 17).
Compound D-IVh was titrated into 100 nM solution of RAGE tail. Fluorescence quenching was used to determine binding. R^2 quality factor of the fitting was 0.93 (FIG. 18).

The Kd is the free concentration of one partner at which half of the binding sites on the other are occupied at equilibrium, for simple one-to-one binding. Read a low Kd as tighter binding.

Molecule `Cc1c(C)n(CC(O)CN2CCOCC2)c2ccc(F)cc12` [Compound D-IIIa, 1-(5-fluoro-2,3-dimethyl-1H-indol-1-yl)-3-morpholinopropan-2-ol] returned a Kd of 82 nM. In the case of `Cc1c(C)n(CC(C#N)CN2CCOCC2)c2ccccc12` [Compound D-IIIb] it was 4 nM. For `CC(=O)NC(CN1CCOCC1)Cn1c(C)c(C)c2ccccc21` [Compound D-IIIc, N-(1-(2,3-dimethyl-1H-indol-1-yl)-3-morphohnopropan-2-yl)acetamide] the value was 9 nM; for `Cc1c(C)n(CC(O)CN2CCOCC2)c2cc(F)ccc12` [Compound D-IIId], 55 nM. In turn, `Cc1c(CC(O)CN2CCOCC2)c2ccccc2n1C` [Compound D-IIIe, 1-(1,2-dimethyl-1H-indol-3-yl)-3-morpholinopropan-2-ol] showed a Kd of 20 nM. For the molecule `CC(=O)NC(CN1CCOCC1)Cn1c(C)c(C)c2cc(F)ccc21` [Compound D-IIIi], the Kd came to 9 nM.

Consider `Cc1c(C)n(CC(CN2CCOCC2)NC(=O)C(C)C)c2ccccc12` [Compound D-IIIk], for which the Kd was 62 nM. For `Cc1c(CC(O)CN2CCOCC2)c2ccccc2n1C(C)C` [Compound D-IIIq] the value was 11 nM. For `Cc1c(CC(O)CN2CCOCC2)c2ccc(F)cc2n1C` [Compound D-IIIv], the Kd came to 14 nM. With `Cc1c(C)n(CC(CC#N)CN2CCOCC2)c2ccccc12` [Compound D-IIIw], the Kd was 4.3 nM. On to `OC(CN1CCCCC1)Cn1c2c(c3ccccc31)CCCC2` [Compound D-IVa], for which binding was characterised by a dissociation constant (Kd) of 72 nM. For `NC(=O)C1CCCN(CC(O)Cn2c3c(c4ccccc42)CCCC3)C1` [Compound D-IVb] the value was 11 nM. In the case of `O=C(O)C1CCCN(CC(O)Cn2c3c(c4ccccc42)CCCC3)C1` [Compound D-IVc] it was 18 nM. Turning to `Cc1c(C)n(CC(C#N)CN2CCCC(C(=O)O)C2)c2ccccc12` [Compound D-IVd], the affinity, expressed as Kd, was 12 nM.

`Cc1c(C)n(CC(C#N)CN2CCCC(C(N)=O)C2)c2ccccc12` [Compound D-IVe] registered a Kd of 2.6 nM. On to `CC(=O)NC(CN1CCCC(C(=O)O)C1)Cn1c(C)c(C)c2ccccc21` [Compound D-IVf], for which binding was characterised by a dissociation constant (Kd) of 4.6 nM.

`CC(=O)NC(CN1CCCC(C(N)=O)C1)Cn1c(C)c(C)c2ccccc21` [Compound D-IVg] yielded a Kd of 12 nM.

`Cc1c(CC(O)CN2CCCC(C(=O)O)C2)c2ccccc2n1C` [Compound D-IVh]: the affinity, expressed as Kd, was 7.7 nM.

These data come from US20220296604A1, “INDOLE COMPOUNDS AS MODULATORS OF RAGE ACTIVITY AND USES THEREOF” (NEW YORK UNIVERSITY, priority 2019, published 2022).
